According to paper PMC10364322, “Evaluation of chronic drug-induced electrophysiological and cytotoxic effects using human-induced pluripotent stem cell-derived cardiomyocytes (hiPSC-CMs)” (Frontiers in Pharmacology, 2023):
Read-outs that look alike come from different tables or passages of the source.

Tests used:
[1] = tested on: hiPSC-CMs (iCell-Cardiomyocytes^2)
Description: (§1) Cells were seeded according to the instructions of the cell provider, in fibronectin-coated 48-well MEA plates (Axion Cytoview Plates, M768-tMEA-48B) at a density suited to form a monolayer (i.e., 50 K/well) and maintained in culture in a stage incubator (37°C, 5% CO2).
(§2) At least 4 h before the beginning of the baseline measurements, a full medium exchange was performed (to a final volume of 400 µL per well). Neat compounds were dissolved in 100% DMSO at a stock concentration 1000-fold the highest target concentration. […] Afterwards, these stock solutions were diluted with Maintenance medium (CDi), to 10-fold the intended concentration. The final DMSO concentration in test solutions and vehicle control was 0.1%.
(§3) Spontaneous electrical activity was recorded in hiPSC-CMs monolayers as field potentials using the Maestro Pro MEA instrument (Axion Biosystems, Atlanta, GA, United States), which allows the maintenance of accurate temperature and CO2 levels (37°C, 5% CO2). After the plate was placed in the Maestro Pro and allowed to equilibrate for about 10 min, baseline acquisition of field potential and impedance signals was initiated and lasted for 5 min each. […] As impedance measures resistance of an applied alternating current through the hiPSC-CMs monolayer, a reduction in the attachment of hiPSC-CMs to the bottom of the well due to cell death or changes in the monolayer morphology, causes a drop in the impedance signal.
The potential presence of various arrhythmic events was evaluated and noted during the data analysis.
(§4) After the acquisition of all timepoint measurements, raw data were loaded into the data analysis software Axion Cardiac Analysis Tool (V.3.2.3). […] A.csv file containing information on the FP parameters per well, per time point, was then generated and used as input to the in-house data management system (SPEcII v.3.4, Unlimit-IT, Geel, Belgium), where descriptive statistics were calculated. Summary values at different time points after compound addition are expressed as percent change from baseline and shown as mean ± standard deviation (SD).
(§5) The nonparametric Wilcoxon-Mann Whitney Test was used to compare the percent change from the baseline (Δ%) value between the group treated with the compound at a given concentration and the group treated with the DMSO at each matching time points. A two-sided test at 5% significance level was considered. […] To assess the physiological relevance of changes, a tolerance interval of DMSO experiments was calculated at each time point, for each parameter. […] TIs indicate an interval where, with a certain confidence level (1- α = 0.95), a specified proportion (p = 0.80) of percent change for DMSO data falls. The lower and upper limits based on the TI values were used as cut-offs for the interpretation of the changes. For the cytotoxicity assays, measurements of fluorescence (after background fluorescence subtraction) from wells treated with the compounds were normalized by the average value of vehicle experiments (DMSO 0.1%) to obtain a DMSO-corrected, delta/delta percent change. Experiments from each condition, as delta/delta percent, were averaged and expressed as mean ± SD. Statistical analysis was performed using a non-parametric test (Kruskal-Wallis) and each treatment condition was compared to the relative DMSO 0.1%. Differences were considered statistically significant when the p-value was smaller than 0.05.

[2] = tested on: hiPSC-CMs (iCell-Cardiomyocytes^2); test: MEA impedance (cytotoxicity readout) in hiPSC-CMs
Description: as §1, §2, §3, §4, §5

[3] = free therapeutic Cmax in humans; ref FDA-approved drug packages, PharmaPendium; cited from earlier work

Structure (SMILES): CC1(C)S[C@@H]2[C@H](NC(=O)[C@H](N)c3ccc(O)cc3)C(=O)N2[C@H]1C(=O)O [Amoxicillin]
- BR (beating rate), % change from baseline ([1]; 1 µM, 2h): 8±1%
- FPD (field-potential duration), % change from baseline ([1]; 1 µM, 2h): -1±2.2%
- FPDc (field-potential duration corrected by beat-rate), % change from baseline ([1]; 1 µM, 2h): 1.6±2.2%
- BR (beating rate), % change from baseline ([1]; 1 µM, 24h): 16±2%
- FPD (field-potential duration), % change from baseline ([1]; 1 µM, 24h): -2.8±1.5%
- FPDc (field-potential duration corrected by beat-rate), % change from baseline ([1]; 1 µM, 24h): 2.1±1.1%
- BR (beating rate), % change from baseline ([1]; 1 µM, 48h): 3±2%
- FPD (field-potential duration), % change from baseline ([1]; 1 µM, 48h): 4.3±3%
- FPDc (field-potential duration corrected by beat-rate), % change from baseline ([1]; 1 µM, 48h): 5.3±2.8%
- BR (beating rate), % change from baseline ([1]; 1 µM, 72h): -2±3%
- FPD (field-potential duration), % change from baseline ([1]; 1 µM, 72h): 8.1±4.8%
- FPDc (field-potential duration corrected by beat-rate), % change from baseline ([1]; 1 µM, 72h): 7±3.6%
- BR (beating rate), % change from baseline ([1]; 1 µM, 96h): -21±2 %
- FPD (field-potential duration), % change from baseline ([1]; 1 µM, 96h): 16.9±3%
- FPDc (field-potential duration corrected by beat-rate), % change from baseline ([1]; 1 µM, 96h): 8.1±2%
- BR (beating rate), % change from baseline ([1]; 3 µM, 72h): -4±3%
- FPD (field-potential duration), % change from baseline ([1]; 3 µM, 72h): 9.6±3.7%
- FPDc (field-potential duration corrected by beat-rate), % change from baseline ([1]; 3 µM, 72h): 8.4±2.9%
- BR (beating rate), % change from baseline ([1]; 3 µM, 96h): -20±4 %
- FPD (field-potential duration), % change from baseline ([1]; 3 µM, 96h): 18.2±7.7%
- FPDc (field-potential duration corrected by beat-rate), % change from baseline ([1]; 3 µM, 96h): 9.6±6.7%
- BR (beating rate), % change from baseline ([1]; 3 µM, 2h): 8±1%
- FPD (field-potential duration), % change from baseline ([1]; 3 µM, 2h): 0.7±2.8%
- FPDc (field-potential duration corrected by beat-rate), % change from baseline ([1]; 3 µM, 2h): 3.1±2.9%
- BR (beating rate), % change from baseline ([1]; 3 µM, 24h): 16±3%
- FPD (field-potential duration), % change from baseline ([1]; 3 µM, 24h): -2.7±2.9%
- FPDc (field-potential duration corrected by beat-rate), % change from baseline ([1]; 3 µM, 24h): 2.3±2.9%
- BR (beating rate), % change from baseline ([1]; 3 µM, 48h): 2±2%
- FPD (field-potential duration), % change from baseline ([1]; 3 µM, 48h): 5.1±3.9%
- FPDc (field-potential duration corrected by beat-rate), % change from baseline ([1]; 3 µM, 48h): 5.7±3.9%
- BR (beating rate), % change from baseline ([1]; 10 µM, 2h): 8±3%
- FPD (field-potential duration), % change from baseline ([1]; 10 µM, 2h): 0.5±3.7%
- FPDc (field-potential duration corrected by beat-rate), % change from baseline ([1]; 10 µM, 2h): 3±3.1%
- BR (beating rate), % change from baseline ([1]; 10 µM, 24h): 18±6 %
- FPD (field-potential duration), % change from baseline ([1]; 10 µM, 24h): -3.1±4.9%
- FPDc (field-potential duration corrected by beat-rate), % change from baseline ([1]; 10 µM, 24h): 2.2±3.9%
- BR (beating rate), % change from baseline ([1]; 10 µM, 48h): 3±4%
- FPD (field-potential duration), % change from baseline ([1]; 10 µM, 48h): 6.6±2.8%
- FPDc (field-potential duration corrected by beat-rate), % change from baseline ([1]; 10 µM, 48h): 7.4±2.1%
- BR (beating rate), % change from baseline ([1]; 10 µM, 72h): -1±8%
- FPD (field-potential duration), % change from baseline ([1]; 10 µM, 72h): 9.6±7.3%
- FPDc (field-potential duration corrected by beat-rate), % change from baseline ([1]; 10 µM, 72h): 8.9±4.3%
- BR (beating rate), % change from baseline ([1]; 10 µM, 96h): -19±5 %
- FPD (field-potential duration), % change from baseline ([1]; 10 µM, 96h): 18.3±5.7%
- FPDc (field-potential duration corrected by beat-rate), % change from baseline ([1]; 10 µM, 96h): 10.4±4.4%
- BR (beating rate), % change from baseline ([1]; 30 µM, 2h): 5±4%
- FPD (field-potential duration), % change from baseline ([1]; 30 µM, 2h): -0.1±3.5%
- FPDc (field-potential duration corrected by beat-rate), % change from baseline ([1]; 30 µM, 2h): 1.6±2.8%
- BR (beating rate), % change from baseline ([1]; 30 µM, 24h): 15±6%
- FPD (field-potential duration), % change from baseline ([1]; 30 µM, 24h): -4.2±3.4%
- FPDc (field-potential duration corrected by beat-rate), % change from baseline ([1]; 30 µM, 24h): 0.5±2.7%
- BR (beating rate), % change from baseline ([1]; 30 µM, 48h): 1±5%
- FPD (field-potential duration), % change from baseline ([1]; 30 µM, 48h): 5.6±1.7%
- FPDc (field-potential duration corrected by beat-rate), % change from baseline ([1]; 30 µM, 48h): 6±2.2%
- BR (beating rate), % change from baseline ([1]; 30 µM, 72h): -3±8%
- FPD (field-potential duration), % change from baseline ([1]; 30 µM, 72h): 8.8±5.4%
- FPDc (field-potential duration corrected by beat-rate), % change from baseline ([1]; 30 µM, 72h): 7.7±3.8%
- BR (beating rate), % change from baseline ([1]; 30 µM, 96h): -20±4 %
- FPD (field-potential duration), % change from baseline ([1]; 30 µM, 96h): 16.4±1.3%
- FPDc (field-potential duration corrected by beat-rate), % change from baseline ([1]; 30 µM, 96h): 7.9±2.1%
- Imp (impedance), % change from baseline ([2]; 1 µM, 2h): 2±4%
- Imp (impedance), % change from baseline ([2]; 1 µM, 24h): 9±7%
- Imp (impedance), % change from baseline ([2]; 1 µM, 48h): -2±4%
- Imp (impedance), % change from baseline ([2]; 1 µM, 72h): 4±3 %
- Imp (impedance), % change from baseline ([2]; 1 µM, 96h): 0±8%
- Imp (impedance), % change from baseline ([2]; 3 µM, 72h): 1±4%
- Imp (impedance), % change from baseline ([2]; 3 µM, 96h): -2±6%
- Imp (impedance), % change from baseline ([2]; 3 µM, 2h): 2±3%
- Imp (impedance), % change from baseline ([2]; 3 µM, 24h): 7±6%
- Imp (impedance), % change from baseline ([2]; 3 µM, 48h): -3±6%
- Imp (impedance), % change from baseline ([2]; 10 µM, 2h): 2±3%
- Imp (impedance), % change from baseline ([2]; 10 µM, 24h): 7±6%
- Imp (impedance), % change from baseline ([2]; 10 µM, 48h): -2±3%
- Imp (impedance), % change from baseline ([2]; 10 µM, 72h): 1±4%
- Imp (impedance), % change from baseline ([2]; 10 µM, 96h): -1±6%
- Imp (impedance), % change from baseline ([2]; 30 µM, 2h): 2±3%
- Imp (impedance), % change from baseline ([2]; 30 µM, 24h): 2±4%
- Imp (impedance), % change from baseline ([2]; 30 µM, 48h): -1±3%
- Imp (impedance), % change from baseline ([2]; 30 µM, 72h): -6±4%
- Imp (impedance), % change from baseline ([2]; 30 µM, 96h): -4±5%
- Free Cmax [3]: 16.1 µM
